From BigSolDB 2.1

O=C(O)c1cccc([N+](=O)[O-])c1C(=O)O
Settings | solubility (mole fraction)
in 1,4-dioxane, 288.17 K | 0.0758
in 1,4-dioxane, 293.28 K | 0.0868
in 1,4-dioxane, 298.31 K | 0.097
in 1,4-dioxane, 303.29 K | 0.107
in 1,4-dioxane, 308.26 K | 0.116
in 1,4-dioxane, 313.2 K | 0.124
in 1,4-dioxane, 318.21 K | 0.132
in 1,4-dioxane, 323.29 K | 0.139
in 1,4-dioxane, 328.19 K | 0.146
in 1,4-dioxane, 333.18 K | 0.152
in 1,4-dioxane, 338.22 K | 0.158
in 1,4-dioxane, 343.16 K | 0.163
in 1,4-dioxane, 348.23 K | 0.167
in 1,4-dioxane, 353.32 K | 0.171
in THF, 278.28 K | 0.203
in THF, 283.17 K | 0.204
in THF, 288.16 K | 0.204
in THF, 293.21 K | 0.205
in THF, 298.29 K | 0.206
in THF, 303.28 K | 0.207
in THF, 308.19 K | 0.208
in THF, 313.23 K | 0.209
in THF, 318.24 K | 0.21
in THF, 323.16 K | 0.211
in THF, 328.19 K | 0.213
in THF, 333.17 K | 0.214
in acetone, 278.16 K | 0.0525
in acetone, 283.18 K | 0.0541
in acetone, 288.27 K | 0.056
in acetone, 293.33 K | 0.0582
in acetone, 298.24 K | 0.0604
in acetone, 303.19 K | 0.0629
in acetone, 308.32 K | 0.0657
in acetone, 313.16 K | 0.0685
in acetone, 318.2 K | 0.0717
in ethyl acetate, 283.2 K | 0.00793
in ethyl acetate, 288.26 K | 0.00847
in ethyl acetate, 293.28 K | 0.00902
in ethyl acetate, 298.19 K | 0.00958
in ethyl acetate, 303.21 K | 0.0102
in ethyl acetate, 308.3 K | 0.0109
in ethyl acetate, 313.16 K | 0.0116
in ethyl acetate, 318.22 K | 0.0124
in ethyl acetate, 323.16 K | 0.0134
in ethyl acetate, 328.23 K | 0.0144
in ethyl acetate, 333.17 K | 0.0156
in ethyl formate, 283.17 K | 0.00268
in ethyl formate, 288.18 K | 0.00287
in ethyl formate, 293.21 K | 0.00309
in ethyl formate, 298.26 K | 0.00335
in ethyl formate, 303.16 K | 0.00363
in ethyl formate, 308.19 K | 0.00396
in ethyl formate, 313.27 K | 0.00433
in ethyl formate, 318.25 K | 0.00473
in ethyl formate, 323.29 K | 0.00517
in methyl acetate, 278.17 K | 0.0334
in methyl acetate, 283.26 K | 0.0343
in methyl acetate, 288.27 K | 0.0353
in methyl acetate, 293.21 K | 0.0365
in methyl acetate, 298.24 K | 0.0378
in methyl acetate, 303.16 K | 0.0392
in methyl acetate, 308.22 K | 0.0407
in methyl acetate, 313.28 K | 0.0422
in methyl acetate, 318.17 K | 0.0437
in methyl acetate, 323.19 K | 0.0452
in n-butyl acetate, 283.18 K | 0.00243
in n-butyl acetate, 288.16 K | 0.00297
in n-butyl acetate, 293.21 K | 0.00353
in n-butyl acetate, 298.19 K | 0.0041
in n-butyl acetate, 303.22 K | 0.0047
in n-butyl acetate, 308.26 K | 0.00531
in n-butyl acetate, 313.27 K | 0.00594
in n-butyl acetate, 318.18 K | 0.00657
in n-butyl acetate, 323.22 K | 0.00724
in n-butyl acetate, 328.24 K | 0.00792
in n-butyl acetate, 333.19 K | 0.0086
in n-butyl acetate, 338.28 K | 0.00933
in n-butyl acetate, 343.25 K | 0.0101
in n-butyl acetate, 348.24 K | 0.0108
in n-butyl acetate, 353.26 K | 0.0116
in water, 283.18 K | 0.00115
in water, 288.26 K | 0.00129
in water, 293.27 K | 0.00152
in water, 298.21 K | 0.00179
in water, 303.19 K | 0.00211
in water, 308.22 K | 0.0025
in water, 313.19 K | 0.003
in water, 318.29 K | 0.00367
in water, 323.18 K | 0.00451
in water, 328.31 K | 0.00569
in water, 333.22 K | 0.00724
in water, 338.18 K | 0.00943
in water, 343.17 K | 0.0126
in water, 348.16 K | 0.0172
in water, 353.28 K | 0.0241
